Where two headings read alike, the source gives them in different places.
Experiments:
Assay type in all cases: in vivo, Drosophila melanogaster
[1] = test system: Dβ2EMS2 Drosophila strain (lesion in the Dβ2 subunit); test: Dosage mortality testing, first instar larvae, Dβ2EMS2 strain; settings: for Fold resistance: Dβ2EMS2 strain relative to Line 14
Description: (§1) Dosage mortality testing was conducted on four strains of Drosophila melanogaster. Each of the Drosophila strains tested had at least one lesion in one of the nAChR subunits or was a control strain lacking a lesion. […] The 4A4D Drosophila strain was a double mutant having lesions in both the Dα1 subunit and the Dβ2 subunit. The susceptible Drosophila strain or control Drosophila strain was the wildtype Drosophila strain in which the EMS lesions were generated, and is referred to in Tables 1-4 as the “Line 14” strain.
(§2) Screening was performed on first instar larvae with five replicates of fifty larvae per vial at each concentration to determine the susceptibility of each Drosophila strain to the spinosyn composition and to an imidacloprid composition. The spinosyn composition (spinosad) included 85% spinosyn A and 15% spinosyn D in a sugar solution. Stock solutions were typically made 0.1% w/v in acetone and then diluted to lower concentrations. The spinosyn or imidacloprid compositions were then applied to the insect diet, allowed to dry and then infested with the insect larvae.
(§3) The concentrations of the spinosyn composition and the imidacloprid composition were selected across a range to provide data enabling the effective dose (ED) that produces a response in 50% of the first instar larvae (ED50) and the effective dose that produces a response in 90% of the first instar larvae (ED90) to be calculated. After administering the spinosyn composition or the imidacloprid composition, the first instar larvae were visually monitored for mortality. Data were analyzed using Probit analysis to determine the ED50 and the ED90, along with upper and lower 95% limits.

[2] = test system: Line 14 (susceptible wildtype control) Drosophila strain; test: Dosage mortality testing, first instar larvae, Line 14 strain; settings: applied to insect diet, Probit analysis
Description: as §1
as §2, with “larvae. […]” for “larvae.”

[3] = test system: Dα1EMS1 Drosophila strain (lesion in the Dα1 nAChR subunit); test: Dosage mortality testing, first instar larvae, Dα1EMS1 strain; settings: for Fold resistance: Dα1EMS1 strain relative to Line 14
Description: as §1, §2, §3

[4] = test system: 4A4D Drosophila strain (double mutant, lesions in both the Dα1 subunit and the Dβ2 subunit); settings: for Fold resistance: 4A4D strain relative to Line 14
Description: as §1, §2, §3

[5] = Dβ2EMS2 strain, first instar larvae, mortality, applied to insect diet, Probit analysis
[6] = Dα1EMS1 strain, first instar larvae, mortality, applied to insect diet, Probit analysis
[7] = 4A4D strain, first instar larvae, mortality, applied to insect diet, Probit analysis

**Q.** Which results are given for `O=[N+]([O-])NC1=NCCN1Cc1ccc(Cl)nc1` [imidacloprid composition, imidacloprid]?
**A.** ED50 [1, 5]: 4.04 ppm; ED90 [1, 5]: 8.02 ppm; Fold resistance ([1]; ED50 table): 28.69; Fold resistance ([1]; ED90 table): 28.70; ED50 [2]: 0.14 ppm; ED90 [2]: 0.28 ppm; ED50 [3, 6]: 2.91 ppm; ED90 [3, 6]: 5.77 ppm; Fold resistance ([3]; ED50 table): 20.63; Fold resistance ([3]; ED90 table): 20.63; ED50 [4, 7]: 3.78 ppm; ED90 [4, 7]: 7.49 ppm; Fold resistance ([4]; ED50 table): 26.81; Fold resistance ([4]; ED90 table): 26.81
